# In ChEMBL document CHEMBL3853264 (Medchemcomm, 2016):
# Key:
# [1] = Intrinsic clearance in rat liver microsomes; type: ADME; details: read-out: CLH
# [2] = Solubility of the compound at pH 6.5; type: physicochemical; details: buffer
# [3] = Dissociation constant, pKa of the compound; type: physicochemical
# [4] = Intrinsic clearance in human liver microsomes; type: ADME; details: read-out: CLH
# [5] = Octanol-water partition co-efficient, log D of the compound by shake flask method; type: physicochemical
# [6] = biological target: T1, Solute carrier family 22 member 12 (Homo sapiens, UniProt Q96S37); experiment: Inhibition of human C-terminal eGFP-tagged URAT1 long isoform expressed in CHO cells assessed as decrease in [14C]-uric acid uptake preincubated for 15 mins followed by [14C]-uric acid addition and incubated in dark for 3 hrs by scintillation counting method; type: cell-based
# T1 sequence (Q96S37 whole entry): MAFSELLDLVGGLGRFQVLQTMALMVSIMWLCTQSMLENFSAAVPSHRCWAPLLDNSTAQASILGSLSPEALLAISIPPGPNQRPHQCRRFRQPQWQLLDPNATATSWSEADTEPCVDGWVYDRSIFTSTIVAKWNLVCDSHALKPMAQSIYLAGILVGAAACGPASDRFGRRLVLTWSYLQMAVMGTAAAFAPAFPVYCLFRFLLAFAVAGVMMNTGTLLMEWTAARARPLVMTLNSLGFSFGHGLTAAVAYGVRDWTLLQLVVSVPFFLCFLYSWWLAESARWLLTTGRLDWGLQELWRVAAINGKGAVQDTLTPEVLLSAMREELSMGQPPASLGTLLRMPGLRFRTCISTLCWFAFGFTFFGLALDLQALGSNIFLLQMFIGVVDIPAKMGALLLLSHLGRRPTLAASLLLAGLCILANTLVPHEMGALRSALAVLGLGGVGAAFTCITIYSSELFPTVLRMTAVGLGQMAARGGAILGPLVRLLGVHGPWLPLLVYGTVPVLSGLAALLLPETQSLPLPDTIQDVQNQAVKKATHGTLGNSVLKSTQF
# [7] = Permeability in RRCK cells; type: ADME, cell-based, Canis lupus familiaris, MDCKII-LE; details: dog, MDCK; read-out: permeability
# [8] = Fraction unbound in rat plasma; type: ADME, cell-free
# [9] = Fraction unbound in dog plasma; type: ADME, cell-free, Canis lupus familiaris
# [10] = biological target: Solute carrier organic anion transporter family member 2B1 (Homo sapiens, UniProt O94956); experiment: Drug uptake assessed as human OATP2B1-mediated drug accumulation by cell-based assay relative to wild type protein; type: ADME
# Chain of Solute carrier organic anion transporter family member 2B1 (O94956 whole entry): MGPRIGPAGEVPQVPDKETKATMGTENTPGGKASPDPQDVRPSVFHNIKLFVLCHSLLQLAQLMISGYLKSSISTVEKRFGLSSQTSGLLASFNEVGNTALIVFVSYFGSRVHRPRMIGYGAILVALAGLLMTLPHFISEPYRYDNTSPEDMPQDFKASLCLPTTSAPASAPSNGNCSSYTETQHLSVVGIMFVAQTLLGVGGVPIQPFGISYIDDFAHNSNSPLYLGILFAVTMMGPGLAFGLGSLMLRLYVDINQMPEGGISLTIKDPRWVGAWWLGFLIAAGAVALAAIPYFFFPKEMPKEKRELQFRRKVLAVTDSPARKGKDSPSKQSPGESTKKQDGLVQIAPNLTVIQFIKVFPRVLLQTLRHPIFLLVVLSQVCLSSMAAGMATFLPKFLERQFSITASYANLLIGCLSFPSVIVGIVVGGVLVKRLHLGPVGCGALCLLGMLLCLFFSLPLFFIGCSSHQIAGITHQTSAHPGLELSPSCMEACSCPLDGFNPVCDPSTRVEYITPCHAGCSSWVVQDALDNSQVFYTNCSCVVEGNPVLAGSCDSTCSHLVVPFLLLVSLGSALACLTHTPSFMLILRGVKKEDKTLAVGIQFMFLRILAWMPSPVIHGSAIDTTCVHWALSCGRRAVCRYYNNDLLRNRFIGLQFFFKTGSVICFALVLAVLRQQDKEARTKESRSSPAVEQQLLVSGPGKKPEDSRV
# Cytochrome P450 1A2 = Cytochrome P450 1A2 (Homo sapiens, UniProt P05177); experiment: Inhibition of CYP1A2 (unknown origin); type: ADME
# Chain of Cytochrome P450 1A2 (P05177 whole entry): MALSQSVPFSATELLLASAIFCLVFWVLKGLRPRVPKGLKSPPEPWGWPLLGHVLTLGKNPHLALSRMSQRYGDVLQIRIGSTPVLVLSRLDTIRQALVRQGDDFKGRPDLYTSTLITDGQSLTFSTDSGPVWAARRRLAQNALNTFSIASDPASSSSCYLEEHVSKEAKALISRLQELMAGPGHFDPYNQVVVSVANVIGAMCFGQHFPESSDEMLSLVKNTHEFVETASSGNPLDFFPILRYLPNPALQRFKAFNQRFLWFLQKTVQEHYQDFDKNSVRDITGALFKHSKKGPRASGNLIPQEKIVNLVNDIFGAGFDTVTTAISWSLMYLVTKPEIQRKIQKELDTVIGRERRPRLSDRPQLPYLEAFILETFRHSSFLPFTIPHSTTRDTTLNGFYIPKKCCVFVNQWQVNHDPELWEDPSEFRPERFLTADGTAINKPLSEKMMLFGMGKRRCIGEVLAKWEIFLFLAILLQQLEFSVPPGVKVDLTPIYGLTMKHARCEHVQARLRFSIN
# Cytochrome P450 2C8 = Cytochrome P450 2C8 (Homo sapiens, UniProt P10632); experiment: Inhibition of CYP2C8 (unknown origin); type: ADME
# Chain of Cytochrome P450 2C8 (P10632 whole entry): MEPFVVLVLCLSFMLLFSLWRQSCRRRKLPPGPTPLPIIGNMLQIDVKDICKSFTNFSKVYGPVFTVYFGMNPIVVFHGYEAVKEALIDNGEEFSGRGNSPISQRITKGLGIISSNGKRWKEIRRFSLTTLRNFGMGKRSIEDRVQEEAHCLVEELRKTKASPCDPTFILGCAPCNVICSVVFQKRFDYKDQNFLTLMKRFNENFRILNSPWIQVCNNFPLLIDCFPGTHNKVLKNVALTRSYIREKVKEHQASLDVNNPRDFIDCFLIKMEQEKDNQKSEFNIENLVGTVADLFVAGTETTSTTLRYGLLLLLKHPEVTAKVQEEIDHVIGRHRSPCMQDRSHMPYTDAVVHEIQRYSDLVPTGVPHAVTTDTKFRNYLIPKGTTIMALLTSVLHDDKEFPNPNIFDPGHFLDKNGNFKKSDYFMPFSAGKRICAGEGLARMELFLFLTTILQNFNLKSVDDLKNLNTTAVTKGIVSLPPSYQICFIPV
# Cytochrome P450 2D6 = Cytochrome P450 2D6 (Homo sapiens, UniProt P10635); experiment: Inhibition of CYP2D6 (unknown origin); type: ADME
# Cytochrome P450 3A4 = Cytochrome P450 3A4 (Homo sapiens, UniProt P08684); experiment: Inhibition of CYP3A4 (unknown origin); type: ADME
# Chain of Cytochrome P450 3A4 (P08684 whole entry): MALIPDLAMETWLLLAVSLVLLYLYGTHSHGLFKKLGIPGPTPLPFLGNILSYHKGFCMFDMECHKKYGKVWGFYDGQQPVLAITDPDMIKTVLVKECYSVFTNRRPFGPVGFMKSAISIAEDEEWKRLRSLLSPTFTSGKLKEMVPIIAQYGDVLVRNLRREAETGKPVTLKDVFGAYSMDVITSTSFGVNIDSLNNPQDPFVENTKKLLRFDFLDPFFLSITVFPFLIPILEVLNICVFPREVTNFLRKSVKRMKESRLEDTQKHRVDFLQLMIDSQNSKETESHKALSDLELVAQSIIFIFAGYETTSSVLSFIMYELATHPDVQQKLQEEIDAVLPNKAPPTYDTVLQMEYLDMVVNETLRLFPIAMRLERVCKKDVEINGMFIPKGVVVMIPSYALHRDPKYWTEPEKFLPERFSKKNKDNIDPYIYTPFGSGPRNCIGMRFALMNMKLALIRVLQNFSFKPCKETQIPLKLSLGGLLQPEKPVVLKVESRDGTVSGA
# [11] = biological target: Solute carrier family 22 member 6 (Homo sapiens, UniProt Q4U2R8); experiment: Inhibition of OAT1 (unknown origin)
# [12] = biological target: Organic anion transporter 3 (Homo sapiens, UniProt Q8TCC7); experiment: Inhibition of OAT3 (unknown origin)
# Chain of Organic anion transporter 3 (Q8TCC7 whole entry): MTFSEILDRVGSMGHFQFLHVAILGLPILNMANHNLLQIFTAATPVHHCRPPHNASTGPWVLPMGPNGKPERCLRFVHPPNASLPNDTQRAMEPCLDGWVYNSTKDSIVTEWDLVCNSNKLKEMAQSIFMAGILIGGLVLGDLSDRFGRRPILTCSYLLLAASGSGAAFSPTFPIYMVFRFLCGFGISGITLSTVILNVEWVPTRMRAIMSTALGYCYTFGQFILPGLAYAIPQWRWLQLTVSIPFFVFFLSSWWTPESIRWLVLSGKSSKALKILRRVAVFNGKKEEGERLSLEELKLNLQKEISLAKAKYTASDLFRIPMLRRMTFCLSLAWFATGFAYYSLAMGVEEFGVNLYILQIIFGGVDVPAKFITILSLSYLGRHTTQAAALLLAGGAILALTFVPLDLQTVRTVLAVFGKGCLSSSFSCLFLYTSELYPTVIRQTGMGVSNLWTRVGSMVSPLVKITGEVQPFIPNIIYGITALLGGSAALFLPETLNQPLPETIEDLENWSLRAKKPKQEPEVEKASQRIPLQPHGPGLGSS
# [13] = Mutagenicity in […] by Ames test in presence of […] fraction; type: toxicity
# [14] = biological target: Sodium channel protein type 5 subunit alpha (Homo sapiens, UniProt Q14524); experiment: Inhibition of human NaV1.5 expressed in HEK293 cells by patch clamp method; type: cell-based
# Chain of Sodium channel protein type 5 subunit alpha (Q14524 whole entry): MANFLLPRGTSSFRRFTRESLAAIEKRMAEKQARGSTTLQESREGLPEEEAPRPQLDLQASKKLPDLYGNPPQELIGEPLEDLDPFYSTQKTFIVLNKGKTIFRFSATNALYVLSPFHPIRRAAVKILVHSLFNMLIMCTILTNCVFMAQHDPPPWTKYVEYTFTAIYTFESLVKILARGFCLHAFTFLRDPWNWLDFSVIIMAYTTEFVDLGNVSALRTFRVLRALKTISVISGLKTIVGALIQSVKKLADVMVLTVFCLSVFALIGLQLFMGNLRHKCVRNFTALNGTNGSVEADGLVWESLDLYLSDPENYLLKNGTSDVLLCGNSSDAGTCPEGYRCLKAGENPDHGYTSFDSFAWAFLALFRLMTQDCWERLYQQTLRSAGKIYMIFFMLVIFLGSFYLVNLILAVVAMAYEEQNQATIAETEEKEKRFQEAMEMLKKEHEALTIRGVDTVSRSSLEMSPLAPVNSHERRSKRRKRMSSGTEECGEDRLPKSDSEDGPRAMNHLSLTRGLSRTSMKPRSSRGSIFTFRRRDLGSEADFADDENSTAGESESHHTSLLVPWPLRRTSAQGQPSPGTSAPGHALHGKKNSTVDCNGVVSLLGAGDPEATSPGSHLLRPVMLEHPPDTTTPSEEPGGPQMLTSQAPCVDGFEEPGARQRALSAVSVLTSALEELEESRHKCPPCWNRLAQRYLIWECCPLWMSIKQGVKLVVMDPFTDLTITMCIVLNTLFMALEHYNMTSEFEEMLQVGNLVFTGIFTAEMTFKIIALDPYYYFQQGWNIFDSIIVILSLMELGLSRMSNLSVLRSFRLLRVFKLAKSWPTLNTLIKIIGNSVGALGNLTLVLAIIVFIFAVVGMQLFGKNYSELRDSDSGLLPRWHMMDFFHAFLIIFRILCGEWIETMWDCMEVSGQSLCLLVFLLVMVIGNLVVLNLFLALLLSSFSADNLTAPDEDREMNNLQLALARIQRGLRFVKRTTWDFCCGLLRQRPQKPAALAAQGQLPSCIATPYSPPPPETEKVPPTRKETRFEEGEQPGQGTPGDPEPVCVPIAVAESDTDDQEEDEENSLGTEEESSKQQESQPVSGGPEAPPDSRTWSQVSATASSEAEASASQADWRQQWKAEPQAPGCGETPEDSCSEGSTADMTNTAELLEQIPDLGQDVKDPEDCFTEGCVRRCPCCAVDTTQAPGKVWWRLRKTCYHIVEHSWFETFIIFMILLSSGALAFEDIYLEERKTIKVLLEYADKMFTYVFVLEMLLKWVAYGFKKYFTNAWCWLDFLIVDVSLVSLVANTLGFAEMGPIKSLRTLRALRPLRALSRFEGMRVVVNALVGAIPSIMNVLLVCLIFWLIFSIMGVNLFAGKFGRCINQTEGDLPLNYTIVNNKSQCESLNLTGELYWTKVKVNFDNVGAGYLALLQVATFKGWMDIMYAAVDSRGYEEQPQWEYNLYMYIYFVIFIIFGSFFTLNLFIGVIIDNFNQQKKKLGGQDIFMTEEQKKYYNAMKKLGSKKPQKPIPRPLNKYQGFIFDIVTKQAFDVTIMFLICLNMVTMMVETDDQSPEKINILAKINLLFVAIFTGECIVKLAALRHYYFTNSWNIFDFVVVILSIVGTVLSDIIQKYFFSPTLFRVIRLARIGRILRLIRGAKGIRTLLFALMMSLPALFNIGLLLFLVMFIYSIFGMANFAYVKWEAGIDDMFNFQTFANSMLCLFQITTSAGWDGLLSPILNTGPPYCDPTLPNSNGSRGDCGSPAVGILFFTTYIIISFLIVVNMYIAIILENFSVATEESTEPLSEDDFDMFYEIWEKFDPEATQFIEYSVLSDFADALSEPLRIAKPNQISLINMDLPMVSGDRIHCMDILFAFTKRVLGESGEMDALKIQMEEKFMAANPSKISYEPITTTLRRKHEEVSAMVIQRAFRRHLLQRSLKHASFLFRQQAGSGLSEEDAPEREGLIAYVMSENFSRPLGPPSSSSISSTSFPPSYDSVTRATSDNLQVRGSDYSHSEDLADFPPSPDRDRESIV
# [15] = biological target: Sodium channel protein type 9 subunit alpha (Homo sapiens, UniProt Q15858); experiment: Inhibition of NaV1.7 (unknown origin) by electrophysiology assay
# [16] = Inhibition of GABAA receptor (unknown origin); design: species or system Homo sapiens
# [17] = Intrinsic clearance in human hepatocytes assessed per 10^6 cells; type: ADME, cell-based, Hepatocyte; details: read-out: CLH
# [18] = Intrinsic clearance in rat hepatocytes assessed per 10^6 cells; type: ADME, cell-based, Hepatocyte; details: read-out: CLH
# [19] = Plasma clearance in rat at 0.76 mg/kg, iv and 2.3 mg/kg, po; type: ADME, organism-based
# [20] = Half life in rat at 0.76 mg/kg, iv and 2.3 mg/kg, po; type: ADME, organism-based; details: in vivo
# [21] = Plasma clearance in rat at 0.5 mg/kg, iv and 1 mg/kg, po; type: ADME, organism-based
# [22] = Unbound clearance in rat at 0.5 mg/kg, iv and 1 mg/kg, po; type: ADME, organism-based; details: in vivo
# [23] = Volume of distribution at steady state in rat at 0.5 mg/kg, iv and 1 mg/kg, po; type: ADME, organism-based; details: in vivo, read-out: Vdss
# [24] = Drug excretion in bile of bile duct cannulated rat; type: ADME; details: read-out: Drug excretion
# [25] = Renal clearance in rat; type: ADME; details: in vivo
# [26] = Renal clearance in dog; type: ADME, Canis lupus familiaris; details: in vivo
# [27] = Drug metabolism in human liver microsomes assessed as oxidation of chlorophenyl ring; type: ADME
# [28] = Drug metabolism in human hepatocytes assessed as oxidation of chlorophenyl ring; type: ADME, cell-based, Hepatocyte
# [29] = Drug metabolism in rat assessed as oxidation of chlorophenyl ring; type: ADME
# [30] = Drug metabolism in dog assessed as oxidation of chlorophenyl ring; type: ADME, Canis lupus familiaris
# [31] = Drug metabolism in human hepatocytes assessed as loss of chlorobenzonitrile moiety in presence of glutathione; type: ADME, cell-based, Hepatocyte
# [32] = Drug metabolism in dog assessed as loss of chlorobenzonitrile moiety in presence of glutathione; type: ADME, Canis lupus familiaris
# Rattus norvegicus [33] = experiment: Toxicity in rat assessed as hypertrophy/hyperplasia of the urothelium at 300 mg/kg/day, po measured over 14 days by microscopic analysis; type: organism-based; details: in vivo, 336 h
# [34] = Toxicity in po dosed rat measured over 14 days; type: organism-based; details: in vivo
# [35] = Toxicity in po dosed dog measured assessed as drug tolerance measured over 14 days; type: organism-based, Canis lupus familiaris; details: in vivo, 336 h
# Canis familiaris [36] = experiment: Hepatotoxicity in male dog assessed as decrease in alanine aminotransferase levels at >= 30 mg/kg/day, po measured over 14 days; type: toxicity, organism-based, Canis lupus familiaris; details: in vivo, 336 h
# Canis familiaris [37] = experiment: Hepatotoxicity in female dog assessed as decrease in alanine aminotransferase levels at >= 100 mg/kg/day, po measured over 14 days; type: toxicity, organism-based, Canis lupus familiaris; details: in vivo, 336 h
# Canis familiaris [38] = experiment: Hepatotoxicity in female dog assessed as pathological changes at >= 100 mg/kg/day, po measured over 14 days; type: toxicity, organism-based, Canis lupus familiaris; details: in vivo, 336 h
# [39] = Average plasma concentration in dog at 30 mg/kg, po administered as single dose measured on day 14; type: ADME, organism-based, Canis lupus familiaris; details: in vivo
# Rattus norvegicus [40] = experiment: Cardiovascular toxicity in rat assessed as decrease in heart rate at 10 mg/kg, po measured over 14 days; type: organism-based; details: in vivo, 336 h
# Rattus norvegicus [41] = experiment: Cardiovascular toxicity in rat assessed as small biphasic change in blood pressure at 30 to 100 mg/kg, po measured over 14 days; type: organism-based; details: in vivo, 336 h
# [42] = Unbound Cmax in rat at 10 mg/kg, po administered as single dose measured on day 14; type: ADME, organism-based; details: in vivo
# [43] = Average plasma concentration in rat at 10 mg/kg, po administered as single dose measured on day 14; type: ADME, organism-based; details: in vivo
# [44] = Unbound Cmax in rat at 30 mg/kg, po administered as single dose measured on day 14; type: ADME, organism-based; details: in vivo
# [45] = Average plasma concentration in rat at 30 mg/kg, po administered as single dose measured on day 14; type: ADME, organism-based; details: in vivo
compound,measurement,setting,value
N#Cc1ccc(Oc2ccc(S(=O)(=O)Nc3ccc(F)cn3)cc2C#N)cc1Cl,microsomal CLint,[1],< 14 µL/min/mg
same,solubility,[2],7.7 µM
same,pKa,[3],5.8
same,microsomal CLint,[4],< 13 µL/min/mg
same,logD,[5],1.8
same,IC50,[6],0.012 µM
same,Papp,[7],16 ×10⁻⁶ cm/s
same,fraction unbound,[8],0.0021
same,fraction unbound,[9],0.0041
same,fold change (FC),[10],1.232
same,IC50,Cytochrome P450 1A2,> 30 µM
same,IC50,Cytochrome P450 2C8,11.9 µM
same,IC50,Cytochrome P450 2D6,> 30 µM
same,IC50,Cytochrome P450 3A4,17.5 µM
same,IC50,[11],14 µM
same,IC50,[12],0.72 µM
same,Activity,[13],Non-Toxic
same,IC50,[14],> 30 µM
same,IC50,[15],> 30 µM
same,Ki,[16],4.8 µM
same,hepatocyte CLint,[17],23 µL/min/1e6 cells
same,hepatocyte CLint,[18],10 µL/min/1e6 cells
same,clearance,[19],0.48 mL/min/kg
same,half-life,[20],7.1 h
same,clearance,[21],0.39 mL/min/kg
same,CL free,[22],95 mL/min/kg
same,Vd,[23],0.18 L/kg
same,dose excreted,[24],< 0.5%
same,CL renal,[25],0.0001 mL/min/kg
same,CL renal,[26],0.0001 mL/min/kg
same,Drug metabolism,[27],Metabolite_Detected
same,Drug metabolism,[28],Metabolite_Detected
same,Drug metabolism,[29],Metabolite_Detected
same,Drug metabolism,[30],Metabolite_Notdetected
same,Drug metabolism,[31],Metabolite_Detected
same,Drug metabolism,[32],Metabolite_Detected
same,Activity,Rattus norvegicus [33],Toxic
same,MTD at 336 h,[34],100 mg/kg
same,Activity,[35],<= 300 mg kg-1
same,Activity,Canis familiaris [36],Toxic
same,Activity,Canis familiaris [37],Toxic
same,Activity,Canis familiaris [38],Non-Toxic
same,Cave,[39],3980 nM
same,Activity,Rattus norvegicus [40],Toxic
same,Activity,Rattus norvegicus [41],Toxic
same,fCmax,[42],59 nM
same,Cave,[43],41 nM
same,fCmax,[44],179 nM
same,Cave,[45],123 nM
